TGI data for twelve compounds are collected here from PubChem BioAssay (NCI).

Among the test systems are SK-OV-3 ovarian; NCI/ADR-RES ovarian; 786-0 renal; MCF7 breast; UO-31 renal; HCC-2998 colon; DU-145 prostate; TK-10 renal; SN12C renal; M14 melanoma; HCT-116 colon.
Common to all, as to test: inhibition of tumour cell growth, NCI panel, 48 h

Where a name gives a salt, the structure may show the parent alone.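 Interpolation was linear, between the two tested concentrations surrounding the appropriate level; five concentrations were tested over 48 hours in 96-well plates. TGI marks complete inhibition of growth.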 *1 amine or outer side, *2 acyl side, *3 side chain or, on linkers, in order; H or OH if unused. Where a SMILES comes first, the peptide text is derived from it. [ ]: non-standard residue; d: D form. The star is where a group is joined. X31 = CC(=O)N(C)SCC(N[*:1])C(=O)[*:2]; X47 = CC(=O)N(C)SCC(N*)/C(O)=N\O; Cbz = O=C(OCc1ccccc1)*; Tfa = O=C(C(F)(F)F)*; Bn = c1ccc(C*)cc1; For = O=C*

As for `CCOC(=O)CN1C(=O)c2c(c(C)n(-c3ccccc3)c2C)C1=O`, the TGI in the experiment on SK-OV-3 ovarian, with NCI/ADR-RES ovarian, in the experiment on 786-0 renal, in the experiment with MCF7 breast, in the experiment on UO-31 renal and in the experiment on HCC-2998 colon was over 100 µM in each case. Further, the TGI in the experiment with DU-145 prostate, in the experiment with TK-10 renal, with SN12C renal, with M14 melanoma and in the experiment on HCT-116 colon was over 100 µM in each case.
`CN(C)c1ccc(/C=c2/c3ccccc3n3c2c2ccccc2[n+]3C)cc1`: the TGI in the experiment with SK-OV-3 ovarian was 14 µM; with NCI/ADR-RES ovarian, 32.8 µM; in the experiment on 786-0 renal, 1.69 µM; in the experiment on MCF7 breast, 5.46 µM; in the experiment with UO-31 renal, 3.9 µM; in the experiment with HCC-2998 colon, 3.33 µM. Also, the TGI in the experiment with DU-145 prostate came to 4.19 µM; in the experiment on TK-10 renal, 3.36 µM; in the experiment on SN12C renal, 2.55 µM; in the experiment with M14 melanoma, 1.69 µM; in the experiment with HCT-116 colon it was 2.74 µM.
As to `CC1(C)[C@H](C(=O)O)N2C(=O)[C@@H](NS(=O)(=O)c3ccc([N+](=O)[O-])cc3)[C@H]2S1(=O)=O`, the TGI with SK-OV-3 ovarian, in the experiment with NCI/ADR-RES ovarian, in the experiment on 786-0 renal, with MCF7 breast, in the experiment with UO-31 renal and with HCC-2998 colon was over 100 µM throughout. The TGI with DU-145 prostate, in the experiment on TK-10 renal, in the experiment with SN12C renal, with M14 melanoma and in the experiment on HCT-116 colon was over 100 µM each time.
Turning to `O=C(CN1CCN(Cc2ccccc2)CC1)c1ccc2[nH]c(=O)oc2c1`, the TGI with SK-OV-3 ovarian, in the experiment on NCI/ADR-RES ovarian, in the experiment with 786-0 renal, in the experiment with MCF7 breast, with UO-31 renal and in the experiment with HCC-2998 colon was over 100 µM each time. The TGI with DU-145 prostate, in the experiment with TK-10 renal, in the experiment with SN12C renal, with M14 melanoma and in the experiment with HCT-116 colon was over 100 µM in each case.
Turning to `CS(=O)(=O)c1ccc(/C=N/NC(N)=S)cc1`, the TGI in the experiment with SK-OV-3 ovarian, in the experiment on NCI/ADR-RES ovarian, in the experiment on 786-0 renal, with MCF7 breast, in the experiment on UO-31 renal and with HCC-2998 colon was over 100 µM in each case. For the same compound, the TGI in the experiment on DU-145 prostate, in the experiment on TK-10 renal, in the experiment on SN12C renal, in the experiment on M14 melanoma and with HCT-116 colon was over 100 µM in each case.
In the case of `CC1=NCCN=C(C)C1N=Nc1ccc2nc(C)[nH]c2c1`, the TGI with SK-OV-3 ovarian was 39.2 µM; in the experiment with NCI/ADR-RES ovarian, 47.9 µM; with 786-0 renal it was 33.5 µM; in the experiment on MCF7 breast it was 30.1 µM; in the experiment on HCC-2998 colon, 41.1 µM; in the experiment on DU-145 prostate, 30.9 µM. In addition, the TGI stood at 42.9 µM with TK-10 renal, 30.9 µM with SN12C renal, 16.8 µM with M14 melanoma and 38 µM with HCT-116 colon.
For `ClCCCN(CCCCl)c1ccc(C=Nc2cccc(Cl)c2)cc1`, the TGI with SK-OV-3 ovarian is over 100 µM; in the experiment with NCI/ADR-RES ovarian, 52.5 µM; in the experiment on 786-0 renal, over 67.2 µM; in the experiment on MCF7 breast, over 70.4 µM; with UO-31 renal, 88.3 µM; in the experiment with HCC-2998 colon, over 100 µM. The TGI is over 44.6 µM with DU-145 prostate; 26.6 µM in the experiment on TK-10 renal; over 79.7 µM with SN12C renal; over 76.3 µM in the experiment with M14 melanoma; over 66.6 µM in the experiment with HCT-116 colon.
Consider `NCC(=O)NC1(c2cc3ccccc3s2)CCCCC1`, for which the TGI was over 100 µM with SK-OV-3 ovarian; over 100 µM in the experiment with NCI/ADR-RES ovarian; over 100 µM in the experiment with 786-0 renal; over 100 µM with MCF7 breast; over 100 µM in the experiment with UO-31 renal; 29 µM in the experiment on HCC-2998 colon. The TGI with DU-145 prostate is over 100 µM; in the experiment with TK-10 renal, over 100 µM; in the experiment with SN12C renal it was over 100 µM; in the experiment with M14 melanoma it was 34 µM; in the experiment on HCT-116 colon, over 100 µM.
With `COc1ccc(/C=C2\CCCC(CN(C)C)C2=O)cc1` (stereo not given), the TGI with SK-OV-3 ovarian turned out to be 23.4 µM; in the experiment on NCI/ADR-RES ovarian, 6.56 µM; in the experiment with 786-0 renal it was 3.47 µM; in the experiment on MCF7 breast, 1.45 µM; in the experiment on UO-31 renal, 8.57 µM; in the experiment on HCC-2998 colon, 16.6 µM. Moreover, the TGI was 30.2 µM in the experiment on DU-145 prostate; 9.45 µM in the experiment with TK-10 renal; 7.12 µM in the experiment with SN12C renal; 4.21 µM in the experiment with M14 melanoma; 3.19 µM with HCT-116 colon.
`CCC1=NC(N/N=C/c2ccco2)=N/C1=C\c1ccccc1O`: the TGI in the experiment on SK-OV-3 ovarian is over 100 µM; in the experiment with NCI/ADR-RES ovarian it was over 100 µM; in the experiment with 786-0 renal it was over 100 µM; with MCF7 breast, over 100 µM; in the experiment with UO-31 renal, over 100 µM; in the experiment with HCC-2998 colon, 89.8 µM. For the same compound, the TGI in the experiment with DU-145 prostate was over 100 µM; in the experiment with TK-10 renal, over 100 µM; with SN12C renal, over 100 µM; in the experiment with M14 melanoma, over 100 µM; with HCT-116 colon it was 56.8 µM.
As to `CC(=O)N(C)SCC(NC(=O)C(Cc1ccccc1)NC(=O)OCc1ccccc1)C(=O)NC(Cc1ccccc1)C(=O)NC(Cc1cn(C=O)c2ccccc12)C(=O)NC(CCCCNC(=O)OCc1ccccc1)C(=O)NC(C(=O)NC(CSN(C)C(C)=O)/C(O)=N\O)C(C)OCc1ccccc1` (stereo not given) (Cbz-F[X31]FW(For)K(Cbz)T(Bn)-X47; configuration not given here), the TGI with SK-OV-3 ovarian, in the experiment on NCI/ADR-RES ovarian, with 786-0 renal, with MCF7 breast, in the experiment with UO-31 renal and in the experiment on HCC-2998 colon was over 100 µM in each case. The TGI in the experiment on DU-145 prostate, in the experiment with TK-10 renal, in the experiment on SN12C renal, in the experiment with M14 melanoma and with HCT-116 colon was over 100 µM throughout.
On to `O=C(O)CC(NC(=O)C(F)(F)F)C(=O)NC(Cc1ccc(O)cc1)C(=O)O` (stereo not drawn) (Tfa-Asp-Tyr-OH; configuration not given here), for which the TGI in the experiment with SK-OV-3 ovarian, in the experiment on NCI/ADR-RES ovarian, with 786-0 renal, with MCF7 breast, in the experiment on UO-31 renal and with HCC-2998 colon was over 50 µM in each case. In addition, the TGI with DU-145 prostate, in the experiment on TK-10 renal, in the experiment on SN12C renal and in the experiment with M14 melanoma was over 50 µM in each case.
